Test results from paper PMC2745359, “Engineering and validation of a novel lipid thin film for biomembrane modeling in lipophilicity determination of drugs and xenobiotics” (Journal of Biological Engineering, 2009).

Legend:
[1] = RPTLC lipophilicity determination on octadecylsilane (ODS) bonded layer; settings: for S (specific hydrophobic surface area): slope of Rm vs methanol fraction; for φo (isocratic chromatographic hydrophobicity index): φo = -Rmw/S, methanol modifier
Protocol: (§1) The engineered lipid film was validated by comparing its performance with the prior art; liquid paraffin film and octadecysilane (ODS) bonded phase, which was selected as reference.
(§2) The computational model employed is a transformation of the planar chromatographic retardation factor Rf according to the following equation: […]
(§3) Linear regression of the Rm values against the fraction of methanol organic modifier in the mobile phase was performed according to the equation: […]
(§4) S, is the specific hydrophobic surface area, while Rmw is the basic lipophilicity parameter calculated from the chromatographic data. The ultimate derived lipophilicity parameter of interest is the isocratic chromatographic hydrophobicity index (φo), which signifies the methanol fraction that will produce half-maximum solute migration on the chromatogram for each compound. […] Derived lipophilicity parameter (φo) values were correlated with Log P and several ChemSketch calculated molecular descriptors to provide quantitative structure property relationships (QSPR) as previously described.

[2] = ref 31 (ADBA), 32 (NPX), 33 (NBT), 34 (HF); cited from earlier work
[3] = RPTLC lipophilicity determination on silica-supported leucaena oil (LO) lipid film
Source text: (§5) Liquid paraffin in n-hexane (5% w/v) was used as coating solution of silica gel support, to produce the layer which was taken as benchmark. Thin film of liquid paraffin was placed on the silica surface by ascending development of the TLC plates in the coating solution and allowing the plates to air dry afterwards.
(§6) The optimal film thickness was designed by testing the alternative films against array of LP benchmark requirements and constraint. Using nabumetone as model compound and varying the concentration of organic modifier (methanol) in the mobile phase, a plot of linear regression of Rm against methanol fraction was made for LP and all alternative LO layers. Rm was obtained from the expression [drawing 1] where Rf is the chromatographic retardation factor [5]. Retention behavior of nabumetone on LP was compared with its behavior on the alternative LO layers by statistical comparison of the slope (S, specific hydrophobic surface area) and y-intercept, (Rmw, basic lipophilicity parameter) of the regression plot of Rm versus methanol fraction. The retention behavior is described by the regression equation: Rm = Sφ + Rmw (where φ is the methanol fraction). Plate development cycle time for a specific methanol fraction (0.5) was set as design constraint. This was compared by recording the time required for the mobile phase (50% methanol) to traverse 7 cm path length of the various silica-supported layers.
as §1, §2, §3, §4

[4] = RPTLC lipophilicity determination on liquid paraffin (LP) film; settings: 5% LP film; for S (specific hydrophobic surface area): slope of Rm vs methanol fraction; for φo (isocratic chromatographic hydrophobicity index): φo = -Rmw/S, methanol modifier; for Rmw (basic lipophilicity parameter): y-intercept of Rm vs methanol fraction
Source text: as §5, §6, §1, §2, §3, §4

[5] = parameters: method as in PMID 17767395; settings: clinical use; cited from earlier work
[6] = ODS layer, y-intercept of Rm vs methanol fraction
[7] = 3.75% LO film, slope of Rm vs methanol fraction
[8] = 3.75% LO film, y-intercept of Rm vs methanol fraction
[9] = 3.75% LO film, φo = -Rmw/S, methanol modifier

Row | SMILES | S (specific hydrophobic surface area) ([1]; ODS layer) | Rmw (basic lipophilicity parameter) [1, 6] | φo (isocratic chromatographic hydrophobicity index) ([1]; ODS layer) | Log P (octanol/water) [2] | S (specific hydrophobic surface area) [3, 7] | Rmw (basic lipophilicity parameter) [3, 8] | φo (isocratic chromatographic hydrophobicity index) [3, 9] | S (specific hydrophobic surface area) [4] | φo (isocratic chromatographic hydrophobicity index) [4] | Rmw (basic lipophilicity parameter) [4] | further results
1 | Nc1c([N+](=O)[O-])cc(C(=O)O)cc1[N+](=O)[O-] [ADBA, 4-amino-3,5-dinitrobenzoic acid] | -1.41 | -0.102 | -0.073 | -1.50 | -8.84 | -0.646 | -0.073 | -5.99 | -0.081 | – | –
2 | CCCCN(CCCC)CCC(O)c1cc2c(Cl)cc(Cl)cc2c2cc(C(F)(F)F)ccc12 (stereo not drawn) [Halofantrine, halofantrine] | -4.55 | 4.94 | 1.09 | 3.25 | -8.13 | 8.40 | 1.03 | -6.54 | 1.03 | 6.76 | –
3 | COc1ccc2cc(CCC(C)=O)ccc2c1 [Nabumetone, nabumetone] | -3.13 | – | 0.89 | 3.27 | -3.95 | 2.58 | 0.66 | -3.48 | 0.70 | 2.43 | Rmw (basic lipophilicity parameter) [1]: 2.77; Rmw (basic lipophilicity parameter) ([3]; 1.25% LO film): 1.05; S (specific hydrophobic surface area) ([3]; 1.25% LO film): -2.33; φo (isocratic chromatographic hydrophobicity index) ([3]; 1.25% LO film): 0.45; Rmw (basic lipophilicity parameter) ([3]; 2.5% LO film): 1.94; S (specific hydrophobic surface area) ([3]; 2.5% LO film): -3.14; φo (isocratic chromatographic hydrophobicity index) ([3]; 2.5% LO film): 0.62; Rmw (basic lipophilicity parameter) ([3]; 5% LO film): 3.48; S (specific hydrophobic surface area) ([3]; 5% LO film): -4.67; φo (isocratic chromatographic hydrophobicity index) ([3]; 5% LO film): 0.75
4 | CC(C)(C)c1ccc(C(O)CCCN2CCC(C(O)(c3ccccc3)c3ccccc3)CC2)cc1 (stereo not drawn) [Terfenadine, terfenadine] | – | – | – | – | – | – | – | – | – | – | Cardiotoxicity (QT prolongation) [5]: withdrawn from clinical use because of cardiotoxicity
